According to patent publication US10857105B2, “Compounds and compositions for intracellular delivery of therapeutic agents” (ModernaTX, Inc., priority 2017, dated 2020):
Each block holds one molecule with its values, some of them ahead of it.

Key:
hEPO mRNA [1] = experiment: Pretreatment study (methotrexate or dexamethasone) with MC3 formulation in Cynomolgus monkeys; format: in vivo; conditions: MC3 formulation with hEPO mRNA, once weekly for four weeks
Excerpt: In order to combat negative effects, nanoparticle compositions are co-administered with one or more substances (e.g., co-medications or additional therapeutic and/or prophylactics) to subjects. Potentially useful additional therapeutic and/or prophylactics include steroids (e.g., corticosteroids), anti-histamines, H1 receptor blockers, H2 receptor blockers, anti-inflammatory compounds, statins, BTK inhibitors, S1P1 agonists, glucocorticoid receptor modulators (GRMs), and estradiols. Non-human primates are pretreated with one or more additional therapeutic agents selected from dexamethasone and acetaminophen. The additional therapeutic agent is administered either 24 hours, 1 hour, or both 24 hours and 1 hour before administration of a nanoparticle composition. Cytokine profiles, inflammation, and other parameters are measured and compared to evaluate the effectiveness of pretreatment
The effects of pretreatment to non-human primates were evaluated using a standard MC3 formulation including an mRNA encoding hEPO. Male monkeys were administered the nanoparticle composition once weekly for four weeks at a dose rate of 5 ml/kg/h and were pretreated with either methotrexate or dexamethasone.
As shown, in the absence of any pretreatment, maximal expression levels decreased nearly 70% over the course of the study.

CD-1 mice = experiment: Luciferase expression after intravenous delivery of luciferase mRNA LNPs (bioluminescent imaging); format: in vivo; conditions: intravenous 0.5 mg/kg mRNA dose
Method: Whole body and ex vivo organ bioluminescent imaging of mice: CD-1 mice were injected 15 minutes prior to the imaging timepoint intraperitoneally (IP) with 200 μL Xenolight D-luciferin K+ salt, diluted in PBS just prior to use to a concentration of 15 mg/mL. Ex vivo imaging of organs was completed, within 25 minutes of luciferin administration. All images were quantified by region of interest for total flux.
[…] […] (See Semple, S.C. et al., Nature Biotech. 2010. 28, 172-176, Jayaraman, M., et al. Angew. Chem. Int. Ed. 2012, 51, 8529-8533, the entire contents of each of which are incorporated by reference herein in their entireties). To evaluate the efficiency of the new amino lipids, LNPs using the novel compounds were tested in vivo in mice using luciferase mRNA as a reporter. An MC3 LNP was included as a control in each experiment, enabling the comparison of LNPs from experiment to experiment. Measured luciferase activity also enabled the determination of protein bio-distribution.

modified luciferase = experiment: Luciferase expression in liver, lung, spleen and femur 6 hours after intravenous administration to mice; format: in vivo; conditions: 6 hours after intravenous 0.5 mpk, mice
How it was run: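 Mice (n=3) got a single 0.5 mpk IV dose of each nanoparticle composition, with MC3 and PBS controls alongside. Organ luminescence flux was read 6 h post-dose.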

IL-6, IP-10 = experiment: Cytokine induction (IL-6, IP-10) in mice 6 hours after intravenous administration; format: in vivo; design: unit not given here; conditions: intravenous 0.5 mpk
How it was run: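 IL-6 and IP-10 concentrations determined 6 hours after a single intravenous 0.5 mpk dose of lipid nanoparticle formulation in mice, with MC3 and PBS as comparators.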

[2] = Chemical stability of lipids in ethanol at room temperature and 37° C. (lipid purity); format: physicochemical
Method: Ester linkages were previously reported to trigger metabolism by esterases in vivo. (See Fukami, T. et al. Drug Metab. Pharmacokinet. 2012, 27, 466-477, the content of which is incorporated by reference herein in its entirety). […] (See Maier M. A., Mol. Ther. 2013, 21, 1570-1578, the content of which is incorporated herein in its entirety) First, the chemical stability of the lipids was evaluated by measuring ethanol stability at room temperature and 37° C. (Table 39). […] LNPs formed with compound 138 were larger, with a surface pKa>7. […] Removal of one ester function (compound 136) afforded LNPs with improved physiochemical characteristics and lower LNP surface pKa.

hEPO mRNA [3] = experiment: hEPO expression and cytokine induction after intravenous administration to mice; format: in vivo; conditions: mice
Method: FIG. 17 is a graph showing the hEPO mRNA expression in CD1-mice measured 3 h (left block), 6 h (middle block) and 24 h (right block) after intravenous administration of various nanoparticle compositions. Numbers 1-13 refer to compositions containing an mRNA expressing hEPO and the following: 1: Compound 147, 2: Compound 184, 3: Compound 232; 4: Compound 189; 5: Compound 200; 6: Compound 233; 7: Compound 234; 8: Compound 235; 9: Compound 237; 10: Compound 239; 11: Compound 243; 12: MC3; 13: PBS. […]
Sample formulations of nanoparticle compositions including different lipids are generally first evaluated according to Luc expression in vivo. The activity of several such compositions was further evaluated using an mRNA encoding hEPO. Nanoparticle compositions including Compounds 6, 18, 25, 30, 108-112, 60, and 122, or MC3 were prepared according to Example 2.
(§1) The expression of hEPO and cytokine induction in mice intravenously administered a nanoparticle composition at a dose of 0.5 mpk were measured at 3, 6, and 24 hours. […] The expression of hEPO in mice intramuscularly administered a nanoparticle composition from Table 1B at a dose of 0.01 mpk were measured at 3, 6, and 24 hours. […] (see
Table 12 compares the nanoparticle compositions including compounds according to Formula (I), (IA), (IB), (II), (IIa), (IIb), (IIc), (IId), (IIe), (IIf), (IIg), or (III) to the compositions including MC3 on the basis of expression and flux levels. […] Thus, these lipids may be useful in nanoparticle composition therapeutics.

luciferase (Luc) mRNA [4] = experiment: Luciferase expression after intramuscular administration to mice; format: in vivo; conditions: Luc mRNA, intramuscular, 0.01 mpk, 6 hours
How it was run: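 CD-1 mice received lipid nanoparticle formulations of modified luciferase mRNA intramuscularly at 0.01 mpk. Bioluminescence total flux was measured, including at 6 h, and AUC was expressed relative to MC3 formulations. Immunogenicity was assessed in parallel.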

hEPO mRNA [5] = experiment: hEPO expression after intramuscular administration to mice; format: in vivo; conditions: Table 3G, intramuscular, hEPO, 6 hr. timepoint, relative to MC3
Method: The numbers 1-11 in this figure correspond to MC3, Compounds 18, 25, 30, 108-112, 60, and 122 respectively.
as §1

[6] = Particle size and polydispersity index of nanoparticle compositions (Zetasizer Nano ZS); format: physicochemical
How it was run: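 Formulations of ionizable lipid, DSPC, cholesterol and PEG-DMG (50:10:38.5:1.5 mol %) carrying Luc or hEPO mRNA with all uridines as N1-methyl pseudouridine. Dynamic light scattering in 1×PBS gave particle size and polydispersity; zeta potential read in 15 mM PBS.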

[7] = Encapsulation efficiency of RNA in nanoparticle compositions (RIBOGREEN assay); format: physicochemical; conditions: Table 1B; formulated with hEPO mRNA
How it was run: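 Lipid nanoparticles (ionisable lipid:DSPC:cholesterol:PEG-DMG 50:10:38.5:1.5 mol %) carrying N1-methylpseudouridine luciferase or hEPO mRNA diluted to about 5 μg/mL in TE, pH 7.5, with or without 2% Triton X-100, 15 min at 37° C. RiboGreen fluorescence (ex ~480, em ~520 nm) blank-subtracted; free RNA = intact/disrupted signal.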

luciferase (Luc) mRNA [8] = experiment: Luciferase expression (whole body bioluminescence) after intravenous administration to mice; format: in vivo; conditions: intravenous, luciferase
How it was run: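 Luc mRNA nanoparticles were given IV at 0.5 mg/kg to groups of six mice, and whole-body bioluminescent flux was imaged 3, 6 and 24 h post-dose. Flux AUC for each lipid formulation was reported as a ratio to the MC3 reference formulation.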

SMILES: CN(Cc1cnc2nc(N)nc(N)c2n1)c1ccc(C(=O)N[C@@H](CCC(=O)O)C(=O)O)cc1 [Methotrexate, methotrexate]
Effect of pretreatment on protein expression (hEPO mRNA [1]): did not confer any particular beneficial effect

Cytokine induction, IL-6 (IL-6, IP-10): 136.18
Cytokine induction, IP-10 (IL-6, IP-10): 316.01
Lipid Purity, t = 96 h, 25° C. ([2]; 96 h, 25° C.): 93.21%
Lipid Purity, t = 96 h, 37° C. ([2]; 96 h, 37° C.): 94.29%
Lipid Purity, t = 0 ([2]; t = 0): 93.80%
Cytokine expression, IL-6 (6 h) (hEPO mRNA [3]; intravenous 0.5 mpk, 6 h): 10.15 pg/mL
Cytokine expression, IP-10 (6 h) (hEPO mRNA [3]; intravenous 0.5 mpk, 6 h): 116.66 pg/mL
SMILES: CCCCC/C=C\C/C=C\CCCCCCCCN(CCO)CCCCCCCC(=O)OC(CCCCCCCC)CCCCCCCC [Compound 6, Heptadecan-9-yl 8-((2-hydroxyethyl)((9Z,12Z)-octadeca-9,12-dien-1-yl)amino)octanoate]
luciferase activity/expression compared to MC3 LNP control (words) (CD-1 mice): Equivalent expression to MC3 LNPs
Total Flux, Femur (modified luciferase; femur): 2.15E+06
Total Flux, Liver (modified luciferase): 1.09E+09
Total Flux, Lung (modified luciferase): 4.30E+06
Total Flux, Spleen (modified luciferase): 3.03E+07
hEPO expression, 3 h (hEPO mRNA [3]; intravenous 0.5 mpk, 3 h): 2.31e+06 pg/mL
hEPO expression, 6 h (hEPO mRNA [3]; intravenous 0.5 mpk, 6 h): 3.17e+06 pg/mL
hEPO expression, 24 h (hEPO mRNA [3]; intravenous 0.5 mpk, 24 h): 1.11e+06 pg/mL
hEPO concentrations compared with MC3 formulations (hEPO mRNA [3]; intravenous, 0.5 mpk, 3, 6 and 24 hours): higher hEPO concentrations than MC3 formulations at each time point

Size ([6]; Table 1A, lipid:DSPC:cholesterol:PEG-DMG 50:10:38.5:1.5 mol %): 91.5 nm
Size ([6]; Table 1B, formulated with hEPO mRNA): 73.3 nm
Size ([6]; Table 1C, compositions for subcutaneous administration): 91.5 nm
EE [7]: 92.39%
SMILES: CCCCCCCCCOC(=O)CCCCCCCN(CCCCCCCC(=O)OC(CCCCCCCC)CCCCCCCC)CCCNC(=O)N(C)C [Compound 110, Heptadecan-9-yl 8-((3-(3,3-dimethylureido)propyl)(8-(nonyloxy)-8-oxooctyl)amino)octanoate]
Total flux 6 hours after intramuscular administration, 0.01 mpk Dose (luciferase (Luc) mRNA [4]): 1.21E+08 p/s
Novel lipid/MC3 ratio, i.m. hEPO (hEPO mRNA [5]): 1.2
Total Flux, Liver (modified luciferase): 2.30E+08
Total Flux, Lung (modified luciferase): 5.76E+06
Total Flux, Spleen (modified luciferase): 1.41E+08
Novel lipid/MC3 ratio, i.v. (luciferase (Luc) mRNA [8]; Table 3G, 6 hr. timepoint, relative to MC3): 0.19
Novel lipid/MC3 expression ratio, i.v. (luciferase (Luc) mRNA [8]; 6 hr. time point, relative to MC3 formulation): 0.19
